Results reported in patent publication US6277831A, “1,4-benzothiazepine-1,1-dioxide derivatives substituted by sugar residues, process for their preparation, pharmaceuticals comprising these compounds, and their use” (Aventis Pharma Deutschland GmbH, priority 1999, dated 2001).

System: bile acid transport in the ileum
Test: Ileum perfusion test: inhibition of bile acid (3H-taurocholic acid) transport in the ileum of anesthetized rats
Assay type: in vivo, Male Wistar rats
Details: rat ileum perfusion; 3 mM taurocholic acid, pH 7.4, 37° C.; 3H-TCA in bile at 80-90 min vs 30-40 min; diastereomeric mixtures unless indicated otherwise
Method: The biological testing of compounds according to the invention was carried out by means of a perfusion test. This test investigates the action of the compounds on the bile acid transport in the ileum. The diastereomeric mixtures of the compounds were tested unless indicated otherwise.
The Perfusion Test was Carried Out as Described Below:
Male Wistar rats (weight range 250-350 g) were anesthetized with urethane (1.5 g/kg i.p.) and the bile duct was cannulated with a polyethylene tube. Eight centimeters proximal to the ileocecal flap, an incision was made into the ileum and a silicone adapter for tubes was sewn in. A second incision with implantation of a corresponding silicone adapter was made in the cecum. Silicone tubes were attached to the adapter in order to perfuse the ileum in an orthograde and open manner (nonrecirculating) with perfusion buffer at a perfusion rate of 1 ml/min.
The perfusion tubes were filled with perfusion buffer (137 mM NaCl, 0.9 mM CaCl2, 0.51 mM MgCl2, 8.1 mM Na2 HPO4, 2.7 mM KCl, 1.47 mM KH2 PO4) (pH 7.4), 1% (v/v) ethanol, and 1% DMSO. The perfusion buffer contained the test compounds in concentrations as indicated, or the vehicle alone. The buffer was preheated to 37° C. The perfusion buffer contained 3 mM taurocholic acid (TCA), which in turn was labeled with 1000 dpm/μl of ^3 H TCA as a marker.
Study Design and Evaluation of the Results
An experimental batch was chosen which allowed the determination of the inhibition of bile acid transport in the individual animal. The bile was collected at 10 min intervals over a period of 90 min (in the case of a following wash-out phase for testing the reversibility over a period of up to 160 min). The perfusion of the vehicle-containing buffer solution over a period of 40 min (pre-test substance) was followed by a perfusion with perfusion buffer which contained the test compound in the concentration to be tested (to 90 min).
For the calculation of the percentage inhibition by the test compound, the dpms (disintegrations per min of ^3 H-TCA) in the bile from 80-90 min (end of the perfusion with the test substance) were related to the collection period 30-40 min during the preliminary phase, when the excretion of the ^3 H-TCA in the control phase had reached its maximum and plateau. The EC50 (=effective concentration 50) was calculated as the effective concentration between the inhibitory values of different concentrations which inhibited the maximum bile acid excretion by 50%.

| Structure (SMILES) | EC50 [nM] |
| --- | --- |
| CCCC[C@]1(CC)CS(=O)(=O)c2cc(OC)c(OC)cc2[C@@H](c2ccccc2)N1 [Comparison Example 8, reference compound] | 9800 |
| CCCCC1(CC)CS(=O)(=O)c2ccc(N(C)C)cc2C(c2cccc(NC(=O)[C@H](O)[C@@H](O)[C@H](O)[C@H](O)CO)c2)N1 (some centres unmarked) [Example 1] | 90 |
| CCCCC1(CC)CS(=O)(=O)c2ccc(N(C)C)cc2C(c2cccc(NC(=O)[C@H](O)[C@@H](O)[C@H](O)[C@H](O)CO)c2)N1O (some centres unmarked) [Example 2] | 150 |
| CCCCC1(CC)CS(=O)(=O)c2ccc(N(C)C)cc2C(c2cccc(NC(=O)CCCCNC[C@H](O)[C@@H](O)[C@H](O)[C@H](O)CO)c2)N1 (some centres unmarked) [Example 3] | 220 |
| CCCCC1(CC)CS(=O)(=O)c2ccc(N(C)C)cc2C(c2cccc(NC(=O)CCCCCCCCCCNC(=O)[C@H](O)[C@@H](O)[C@H](O)[C@H](O)CO)c2)N1 (some centres unmarked) [Example 4] | 720 |
| CCCCC1(CCCC)CS(=O)(=O)c2ccc(N(C)C)cc2C(c2cccc(NC(=O)[C@H](O)[C@@H](O)[C@H](O)[C@H](O)CO)c2)N1 (some centres unmarked) [Example 5] | 400 |
| CCCCC1(CCCC)CS(=O)(=O)c2ccc(N(C)C)cc2C(c2cccc(NC(=O)[C@H](O)[C@@H](O)[C@H](O)[C@H](O)CO)c2)N1O (some centres unmarked) [Example 6] | 90 |
| CCCCC1(CCCC)CS(=O)(=O)c2ccc(N(C)C)cc2C(c2cccc(NC(=O)CCCCNC[C@H](O)[C@@H](O)[C@H](O)[C@H](O)CO)c2)N1 (some centres unmarked) [Example 7] | 1400 |
